Results published in patent US8952024B2, “Herbicidal pyrimidone derivatives” (E I du Pont de Nemours and Company, priority 2009, dated 2015).

Experiments:
Assay type in all cases: in vivo
[1] = test system: barnyardgrass (Echinochloa crus-galli); test: Test A pre-/postemergence plant response
Outline: (§1)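 Plants grown from seed in a loam soil and sand mix received test compounds both as a preemergence soil spray and, at the same time, as a postemergence spray at the one- to two-leaf stage. Injury was judged visually against untreated controls roughly ten days later, 0 meaning no effect and 100 complete control.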

corn (Zea mays) = test: Test A pre-/postemergence plant response
Outline: as §1

[2] = test system: giant foxtail (Setaria faberii); test: Test A pre-/postemergence plant response
Outline: as §1

[3] = test system: large crabgrass (Digitaria sanguinalis); test: Test A pre-/postemergence plant response
Outline: as §1

[4] = test system: morningglory (Ipomoea spp.); test: Test A pre-/postemergence plant response
Outline: as §1

[5] = test system: pigweed (Amaranthus retroflexus); test: Test A pre-/postemergence plant response
Outline: as §1

[6] = test system: velvetleaf (Abutilon theophrasti); test: Test A pre-/postemergence plant response
Outline: as §1

[7] = test system: wheat (Triticum aestivum); test: Test A pre-/postemergence plant response
Outline: as §1

[8] = test system: barnyardgrass (Echinochloa crus-galli); test: Test B flooded paddy test; details: for Plant response rating, Flood, Barnyardgrass: 250 g ai/ha, flooded paddy test, visual rating on 0 to 100 scale (0 no effect, 100 complete control) after 13 to 15 days; for Plant response rating, Barnyardgrass: Flood (flooded paddy test), 13 to 15 days; for Barnyardgrass plant response rating: Flood, 31 g ai/ha, scale 0 to 100 (0 no effect, 100 complete control)
Outline: (§2)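 Each compound is added to standing floodwater (3 cm above soil, maintained) in pots of 2-leaf-stage plants; greenhouse exposure lasts 13–15 d before visual comparison with controls on a 0–100 control scale.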

[9] = test system: ducksalad (Heteranthera limosa); test: Test B flooded paddy test; details: for Plant response rating, Flood, Ducksalad: 250 g ai/ha, flooded paddy test, visual rating on 0 to 100 scale (0 no effect, 100 complete control) after 13 to 15 days; for Plant response rating, Ducksalad: Flood (flooded paddy test), 13 to 15 days; for Ducksalad plant response rating: Flood, 31 g ai/ha, scale 0 to 100 (0 no effect, 100 complete control)
Outline: as §2

rice (Oryza sativa) = test: Test B flooded paddy test; details: for Plant response rating, Flood, Rice: 250 g ai/ha, flooded paddy test, visual rating on 0 to 100 scale (0 no effect, 100 complete control) after 13 to 15 days; for Plant response rating, Rice: Flood (flooded paddy test), 13 to 15 days; for Rice plant response rating: Flood, 31 g ai/ha, scale 0 to 100 (0 no effect, 100 complete control)
Outline: as §2

[10] = test system: umbrella sedge (Cyperus difformis); test: Test B flooded paddy test; details: for Plant response rating, Flood, Sedge, Umbrella: 250 g ai/ha, flooded paddy test, visual rating on 0 to 100 scale (0 no effect, 100 complete control) after 13 to 15 days; for Plant response rating, Sedge, Umbrella: Flood (flooded paddy test), 13 to 15 days; for Sedge, Umbrella plant response rating: Flood, 31 g ai/ha, scale 0 to 100 (0 no effect, 100 complete control)
Outline: as §2

[11] = Postemergence, 125 g ai/ha, 0 to 100 scale where 0 is no effect and 100 is complete control
[12] = Postemergence, 500 g ai/ha, visual injury, 0 to 100 scale (0 no effect, 100 complete control), approx. ten days
[13] = Preemergence, 125 g ai/ha, 0 to 100 scale where 0 is no effect and 100 is complete control, approximately ten days
[14] = Preemergence, 500 g ai/ha, 0 to 100 scale, 0 = no effect, 100 = complete control
[15] = Postemergence, 125 g ai/ha, visual injury, 0 to 100 scale (0 no effect, 100 complete control), approx. ten days
[16] = 62 g ai/ha, scale of 0 to 100 where 0 is no effect and 100 is complete control
[17] = 125 g ai/ha, scale 0 to 100, 0 is no effect, 100 is complete control
[18] = Preemergence, 125 g ai/ha, 0 to 100 scale, 0 = no effect, 100 = complete control
[19] = Postemergence, 500 g ai/ha, 0 to 100 scale, 0 = no effect, 100 = complete control, approx. ten days
[20] = Preemergence, 500 g ai/ha, visual injury, 0 to 100 scale (0 no effect, 100 complete control), approx. ten days

O=C(C1=C(O)C2CCC(C2)C1=O)c1cnc(-c2ccccc2)n(CC2CCCO2)c1=O (stereo not drawn) [Compound 250]
70: Corn plant response rating (corn (Zea mays); [12]) | Plant response rating, Ducksalad [9, 17] | Plant response rating, Flood, Sedge, Umbrella [10]
0: Plant response rating, Barnyardgrass [1, 13] | Plant response rating, Corn (corn (Zea mays); [11]) | Plant response rating, Corn (corn (Zea mays); [13]) | Plant response rating, Corn (corn (Zea mays); [14]) | Plant response rating, Wheat [7, 15] | Plant response rating, Wheat [7, 13] | Plant response rating, Barnyardgrass [8, 16] | Barnyardgrass plant response rating [8] | Plant response rating, Flood, Rice (rice (Oryza sativa)) | Plant response rating, Rice (rice (Oryza sativa); [16]) | Plant response rating, Rice (rice (Oryza sativa); [17]) | Rice plant response rating (rice (Oryza sativa)) | Sedge, Umbrella plant response rating [10]
100: Barnyardgrass plant response rating [1, 12] | Foxtail, Giant plant response rating [2, 12] | Crabgrass, Large plant response rating [3, 12] | Plant response rating, Morningglory [4, 15] | Morningglory plant response rating [4, 12] | Plant response rating, Pigweed [5, 15] | Pigweed plant response rating [5, 12] | Plant response rating, Pigweed [5, 14] | Plant response rating, Velvetleaf [6, 15] | Velvetleaf plant response rating [6, 12]
60: Plant response rating, Foxtail, Giant [2, 14] | Plant response rating, Crabgrass, Large [3, 11] | Plant response rating, Morningglory [4, 14] | Plant response rating, Pigweed [5, 13]
90: Plant response rating, Foxtail, Giant [2, 15] | Plant response rating, Crabgrass, Large [3, 14] | Plant response rating, Velvetleaf [6, 14]
30: Plant response rating, Foxtail, Giant [2, 13] | Plant response rating, Crabgrass, Large [3, 13] | Plant response rating, Ducksalad [9, 16] | Ducksalad plant response rating [9]
75: Plant response rating, Flood, Ducksalad [9]
50: Plant response rating, Barnyardgrass [1, 11] | Plant response rating, Velvetleaf [6, 13]
65: Plant response rating, Sedge, Umbrella [10, 16] | Plant response rating, Sedge, Umbrella [10, 17]
10: Plant response rating, Morningglory [4, 13] | Plant response rating, Wheat [7, 14] | Plant response rating, Flood, Barnyardgrass [8] | Plant response rating, Barnyardgrass [8, 17]
40: Plant response rating, Barnyardgrass [1, 14]
20: Wheat plant response rating [7, 12]

C#Cc1ccc(-c2ncc(C(=O)C3=C(O)C4CCC(C4)C3=O)c(=O)n2C2CCCCC2)cc1 (stereo not drawn) [Compound 254]
90: Barnyardgrass plant response rating [1, 12] | Pigweed plant response rating [5, 12] | Velvetleaf plant response rating [6, 12]
75: Plant response rating, Sedge, Umbrella [10, 17]
45: Ducksalad plant response rating [9]
70: Crabgrass, Large plant response rating [3, 12]
80: Plant response rating, Flood, Sedge, Umbrella [10]
100: Plant response rating, Flood, Ducksalad [9]
85: Plant response rating, Ducksalad [9, 16] | Plant response rating, Ducksalad [9, 17]
50: Foxtail, Giant plant response rating [2, 12] | Plant response rating, Crabgrass, Large [3, 14] | Morningglory plant response rating [4, 12] | Plant response rating, Velvetleaf [6, 15] | Plant response rating, Sedge, Umbrella [10, 16]
30: Plant response rating, Foxtail, Giant [2, 14] | Sedge, Umbrella plant response rating [10]
20: Plant response rating, Crabgrass, Large [3, 11] | Plant response rating, Morningglory [4, 15] | Plant response rating, Velvetleaf [6, 14]
10: Plant response rating, Barnyardgrass [1, 14] | Corn plant response rating (corn (Zea mays); [12]) | Plant response rating, Foxtail, Giant [2, 15] | Plant response rating, Barnyardgrass [8, 17]
60: Plant response rating, Pigweed [5, 15]
0: Plant response rating, Barnyardgrass [1, 11] | Plant response rating, Barnyardgrass [1, 13] | Plant response rating, Corn (corn (Zea mays); [11]) | Plant response rating, Corn (corn (Zea mays); [13]) | Plant response rating, Corn (corn (Zea mays); [14]) | Plant response rating, Foxtail, Giant [2, 13] | Plant response rating, Crabgrass, Large [3, 13] | Plant response rating, Morningglory [4, 13] | Plant response rating, Pigweed [5, 13] | Plant response rating, Pigweed [5, 14] | Plant response rating, Velvetleaf [6, 13] | Plant response rating, Wheat [7, 15] | Wheat plant response rating [7, 12] | Plant response rating, Wheat [7, 13] | Plant response rating, Wheat [7, 14] | Plant response rating, Barnyardgrass [8, 16] | Barnyardgrass plant response rating [8] | Plant response rating, Flood, Rice (rice (Oryza sativa)) | Plant response rating, Rice (rice (Oryza sativa); [16]) | Plant response rating, Rice (rice (Oryza sativa); [17]) | Rice plant response rating (rice (Oryza sativa))
15: Plant response rating, Flood, Barnyardgrass [8]

CCCn1c(-c2cccc(C)c2)ncc(C(=O)C2=C(O)CCCC2=O)c1=O [Compound 172]
30: Corn plant response rating (corn (Zea mays); [12])
20: Plant response rating, Corn (corn (Zea mays); [11]) | Wheat plant response rating [7, 12] | Plant response rating, Barnyardgrass [8, 17] | Ducksalad plant response rating [9]
0: Plant response rating, Corn (corn (Zea mays); [18]) | Plant response rating, Corn (corn (Zea mays); [14]) | Plant response rating, Morningglory [4, 18] | Plant response rating, Wheat [7, 11] | Plant response rating, Wheat [7, 18] | Plant response rating, Wheat [7, 14] | Barnyardgrass plant response rating [8] | Plant response rating, Rice (rice (Oryza sativa); [17]) | Rice plant response rating (rice (Oryza sativa)) | Sedge, Umbrella plant response rating [10]
60: Plant response rating, Foxtail, Giant [2, 11] | Plant response rating, Foxtail, Giant [2, 14] | Plant response rating, Crabgrass, Large [3, 11] | Plant response rating, Ducksalad [9, 17]
10: Plant response rating, Barnyardgrass [1, 18] | Plant response rating, Foxtail, Giant [2, 18] | Plant response rating, Crabgrass, Large [3, 18] | Plant response rating, Pigweed [5, 18]
80: Plant response rating, Barnyardgrass [1, 14] | Crabgrass, Large plant response rating [3, 12] | Plant response rating, Velvetleaf [6, 14]
50: Plant response rating, Morningglory [4, 14] | Plant response rating, Velvetleaf [6, 18]
90: Plant response rating, Barnyardgrass [1, 11] | Barnyardgrass plant response rating [1, 12] | Foxtail, Giant plant response rating [2, 12] | Plant response rating, Crabgrass, Large [3, 14] | Plant response rating, Morningglory [4, 11]
75: Plant response rating, Sedge, Umbrella [10, 17]
100: Morningglory plant response rating [4, 12] | Plant response rating, Pigweed [5, 11] | Pigweed plant response rating [5, 12] | Plant response rating, Pigweed [5, 14] | Plant response rating, Velvetleaf [6, 11] | Velvetleaf plant response rating [6, 12]

CCn1c(-c2cccc(F)c2)ncc(C(=O)C2=C(O)CCCC2=O)c1=O [Compound 124]
40: Plant response rating, Barnyardgrass [1, 11] | Plant response rating, Foxtail, Giant [2, 20] | Plant response rating, Flood, Sedge, Umbrella [10]
10: Plant response rating, Foxtail, Giant [2, 18]
80: Plant response rating, Morningglory [4, 20]
50: Plant response rating, Foxtail, Giant [2, 11]
70: Plant response rating, Foxtail, Giant [2, 19] | Plant response rating, Crabgrass, Large [3, 11] | Plant response rating, Velvetleaf [6, 18]
100: Plant response rating, Morningglory [4, 11] | Plant response rating, Morningglory [4, 19] | Plant response rating, Pigweed [5, 19] | Plant response rating, Pigweed [5, 18] | Plant response rating, Pigweed [5, 20] | Plant response rating, Velvetleaf [6, 11] | Plant response rating, Velvetleaf [6, 19] | Plant response rating, Velvetleaf [6, 20]
60: Plant response rating, Barnyardgrass [1, 20] | Plant response rating, Crabgrass, Large [3, 18] | Plant response rating, Morningglory [4, 18]
30: Plant response rating, Flood, Barnyardgrass [8]
15: Plant response rating, Rice (rice (Oryza sativa); [16])
90: Plant response rating, Barnyardgrass [1, 19] | Plant response rating, Crabgrass, Large [3, 19] | Plant response rating, Crabgrass, Large [3, 20] | Plant response rating, Pigweed [5, 11]
20: Plant response rating, Barnyardgrass [1, 18] | Plant response rating, Corn (corn (Zea mays); [19]) | Plant response rating, Flood, Rice (rice (Oryza sativa)) | Plant response rating, Rice (rice (Oryza sativa); [17]) | Plant response rating, Sedge, Umbrella [10, 17]
0: Plant response rating, Corn (corn (Zea mays); [11]) | Plant response rating, Corn (corn (Zea mays); [18]) | Plant response rating, Corn (corn (Zea mays); [20]) | Plant response rating, Wheat [7, 11] | Plant response rating, Wheat [7, 19] | Plant response rating, Wheat [7, 18] | Plant response rating, Wheat [7, 20] | Plant response rating, Barnyardgrass [8, 16] | Plant response rating, Barnyardgrass [8, 17] | Barnyardgrass plant response rating [8] | Plant response rating, Flood, Ducksalad [9] | Plant response rating, Ducksalad [9, 16] | Plant response rating, Ducksalad [9, 17] | Ducksalad plant response rating [9] | Rice plant response rating (rice (Oryza sativa)) | Plant response rating, Sedge, Umbrella [10, 16] | Sedge, Umbrella plant response rating [10]
